# Source: patent US5594009A, “Fused pyrrolocarbazoles” (priority 1995, dated 1997)
# System: indoleamine 2,3-dioxygenase (IDO) mRNA in THP-1 cells
# Test: Inhibition of Induction By IFNγ of IDO mRNA
# Assay type: cell-based
# Conditions: Homo sapiens, compound 400 nM, IFNγ 400 units/ml, IDO/GAPD mRNA ratio, 48 hours, read-out: IDO mRNA, Phosphorimager units, % of IFNγ-treated cells
# Protocol: Fused pyrrolocarbazoles in accordance with our invention were tested for their ability to inhibit the induction by IFNγ of indoleamine 2,3-dioxygenase (IDO) mRNA in THP-1 cells, a human monocyte cell line.
# Cell Culture: THP-1 cells (American Type Culture Collection, Rockville, Md.), a human monocytic leukemia cell line, were grown in RPMI 1640 medium (Mediatech, Herndon Valley, Va.) with 50 μM 2-mercaptoethanol and 10% fetal bovine serum. Cells were plated in T75 culture flasks, at 4×10^4 cells/cm^2 in 10 ml of medium, and were immediately treated with fused pyrrolocarbazoles at various concentrations. After 30 minutes recombinant (E. coli) IFNγ (Boehringer Mannheim Corporation,Indianapolis, Ind.) was added at 200-400 units/ml. Cells were incubated (37° C., 5% CO2 /95% Air) for 48 hours after treatment.
# RNA Isolation: Cells were pelleted by centrifugation (50× g, 7 min.) and medium was decanted. The cells were then washed two times with phosphate buffered saline pH 7.2 (PBS) (Mediatech, Herndon Valley, Va.). The washed cell pellet was lysed in 2 ml RNAzol B (Tel-Test, Inc., Friendswood, Tex.). RNA was isolated by chloroform extraction, precipitated, and washed following the "RNAzol B isolation of RNA" protocol accompanying this product. RNA was then solubilized in H2 O, and the concentration and purity were determined by reading the absorbance at A260 nm and A280 nm. Finally, the RNA was reprecipitated in ethanol, overnight at -20° C.
# cDNA Probes: Indoleamine 2,3-dioxygenase (IDO) cDNA was received from Sohan L. Gupta, Ph. D. (Hipple Cancer Research Center, Dayton, Ohio) (see Da., W. & Gupta, S. L. 168 Biochem. Biophys. Res. Commun. 1, 1990 and Hassanain, H. H. et al. 268 J. Biol. Chem. 5077, 1993). Glyceraldehyde-3-phosphate dehydrogenase (GAPD) cDNA was obtained through American Type Culture Collection (Rockville, Md.). These cDNA's were produced and purified using standard methods (see, Sambrook, Fritsch, Maniatis (1989) Molecular Cloning a Laboratory Manual/Second Edition 1, 1.21-1.24, 1.74-1.81, hereinafter in this Example, "Maniatis a") using Qiagen plasmid purification kits (Qiagen Inc., Chatsworth, Calif.). DNA concentration and purity were determined by absorbance at 280 nm and 260 nm. Specific DNA inserts were cut out by standard methods using restriction enzymes, and subsequently separated on agarose gels as in Maniatis (see, Sambrook, Fritsch, Maniatis (1989) Molecular Cloning a Laboratory Manual/Second Edition 1, 6.9-6.15, hereinafter in this Example, "Maniatis b"). cDNA probes were further purified for [^32 P] labeling using the Geneclean II DNA purification kit (BIO 101, Inc., La Jolla, Calif.). Probes were labeled with dCTP-α-^32 P (Amersham Corp., Arlington Heights, Ill.) by random primer labeling, using the Prime-a-GeneLabeling System (Promega Corp., Madison, Wis.).
# Analysis and quantification of mRNA: IDO mRNA was detected by Northern blot analysis (see Maniatis a, p. 7.39-7.51) using standard methods. […] Quantification of IDO mRNA was carried out using a phosphorimager (Molecular Dynamics) in which density (i.e., amount of RNA) is expressed as relative phosphorimager units. […] GAPD mRNA measurement by phosphorimager quantification of Northern blots serves as a means to normalize for potential sample to sample differences in the amount of total RNA loaded on gels. […]
compound,measurement,value
O=C1NCc2c1c1c(c3[nH]c4ccccc4c23)Cc2ccccc2-1 [Compound I-2],mrna remaining at 0.4 µM,55%
